Reference: PubChem BioAssay AID2060898 (Molecular Pharmacology Branch, DTP, NCI, 2025)

System: 616215-338-R-J1-PDC complex spheroid viability
Test: Anticancer human tumor 616215-338-R-J1-PDC patient-derived colon adenocarcinoma cell line growth inhibition [RAS]
Settings: for IC50: curve of first compound; for viability, T/C: stronger effect = lower value
Procedure, shortened: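 Tumour cells grown as complex spheroids with HUVEC endothelial cells and mesenchymal stem cells, treated with RAS pathway inhibitor combinations. Each agent spans half-log steps from near clinical Cmax, or 10 microM where Cmax is unknown.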

[1] = second compound 0.000949 µM, first compound 0.00316 µM
[2] = second compound 0.000949 µM, first compound 0.01 µM
[3] = second compound 0.000949 µM, first compound 0.0316 µM
[4] = second compound 0.000949 µM, first compound 0.1 µM
[5] = second compound 0.000949 µM, first compound 0.316 µM
[6] = second compound 0.000949 µM, first compound 1 µM
[7] = second compound 0.003 µM, first compound 0.00316 µM
[8] = second compound 0.003 µM, first compound 0.01 µM
[9] = second compound 0.003 µM, first compound 0.0316 µM
[10] = second compound 0.003 µM, first compound 0.1 µM
[11] = second compound 0.003 µM, first compound 0.316 µM
[12] = second compound 0.003 µM, first compound 1 µM
[13] = second compound 0.00949 µM, first compound 0.00316 µM
[14] = second compound 0.00949 µM, first compound 0.01 µM
[15] = second compound 0.00949 µM, first compound 0.0316 µM
[16] = second compound 0.00949 µM, first compound 0.1 µM
[17] = second compound 0.00949 µM, first compound 0.316 µM
[18] = second compound 0.00949 µM, first compound 1 µM
[19] = second compound 0.03 µM, first compound 0.00316 µM
[20] = second compound 0.03 µM, first compound 0.01 µM
[21] = second compound 0.03 µM, first compound 0.0316 µM
[22] = second compound 0.03 µM, first compound 0.1 µM
[23] = second compound 0.03 µM, first compound 0.316 µM
[24] = second compound 0.03 µM, first compound 1 µM
[25] = second compound 0.0949 µM, first compound 0.00316 µM
[26] = second compound 0.0949 µM, first compound 0.01 µM
[27] = second compound 0.0949 µM, first compound 0.0316 µM
[28] = second compound 0.0949 µM, first compound 0.1 µM
[29] = second compound 0.0949 µM, first compound 0.316 µM
[30] = second compound 0.0949 µM, first compound 1 µM
[31] = second compound 0.3 µM, first compound 0.00316 µM
[32] = second compound 0.3 µM, first compound 0.01 µM
[33] = second compound 0.3 µM, first compound 0.0316 µM
[34] = second compound 0.3 µM, first compound 0.1 µM
[35] = second compound 0.3 µM, first compound 0.316 µM
[36] = second compound 0.3 µM, first compound 1 µM
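Further: spheroids exposed to agents for seven days before viability readout.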
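Wherever viability, T/C is given: 100% = DMSO vehicle control viability.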

C=CC(=O)Nc1cc(Nc2nccc(-c3cn(C)c4ccccc34)n2)c(OC)cc1N(C)CCN(C)C + CCn1c(-c2cccnc2C(C)OC)c2c3cc(ccc31)N1CCOC(CC(NC(=O)C(C(C)C)N(C)C(=O)C3(F)CCN(C(=O)C#CC(C)(C)N(C)C)CC3)C(=O)N3CCCC(N3)C(=O)OCC(C)(C)C2)C1
IC50 (second compound 0.000949 µM): > 1000 nM | IC50 (second compound 0.003 µM): > 1000 nM | IC50 (second compound 0.00949 µM): > 1000 nM | IC50 (second compound 0.03 µM): > 1000 nM | IC50 (second compound 0.0949 µM): > 1000 nM | IC50 (second compound 0.3 µM): > 1000 nM | viability, T/C [1]: 98.4% | viability, T/C [2]: 105% | viability, T/C [3]: 116% | viability, T/C [4]: 103% | viability, T/C [5]: 102% | viability, T/C [6]: 68.2% | viability, T/C [7]: 103% | viability, T/C [8]: 106% | viability, T/C [9]: 99.8% | viability, T/C [10]: 112% | viability, T/C [11]: 110% | viability, T/C [12]: 66.2% | viability, T/C [13]: 100% | viability, T/C [14]: 99.6% | viability, T/C [15]: 108% | viability, T/C [16]: 110% | viability, T/C [17]: 107% | viability, T/C [18]: 80% | viability, T/C [19]: 109% | viability, T/C [20]: 105% | viability, T/C [21]: 100% | viability, T/C [22]: 110% | viability, T/C [23]: 104% | viability, T/C [24]: 62.7% | viability, T/C [25]: 105% | viability, T/C [26]: 110% | viability, T/C [27]: 111% | viability, T/C [28]: 112% | viability, T/C [29]: 103% | viability, T/C [30]: 66.9% | viability, T/C [31]: 97.1% | viability, T/C [32]: 104% | viability, T/C [33]: 95.9% | viability, T/C [34]: 89.9% | viability, T/C [35]: 97.2% | viability, T/C [36]: 59%

Cc1nc(N2CCC3(CC2)COC(C)C3N)c(CO)nc1Sc1ccnc(N)c1Cl (stereo unspecified) + CCn1c(-c2cc(N3CCN(C)CC3)cnc2C(C)OC)c2c3cc(ccc31)-c1csc(n1)CC(NC(=O)C1CC1C)C(=O)N1CCCC(N1)C(=O)OCC(C)(C)C2
IC50 (second compound 0.000949 µM): > 10000 nM | IC50 (second compound 0.003 µM): 1670 nM | IC50 (second compound 0.00949 µM): 214 nM | IC50 (second compound 0.03 µM): < 31.6 nM | IC50 (second compound 0.0949 µM): < 31.6 nM | IC50 (second compound 0.3 µM): < 31.6 nM | viability, T/C [3]: 123% | viability, T/C [4]: 106% | viability, T/C [5]: 85.6% | viability, T/C [6]: 75.6% | viability, T/C (second compound 0.000949 µM, first compound 3.16 µM): 63.1% | viability, T/C (second compound 0.000949 µM, first compound 10 µM): 61.9% | viability, T/C [9]: 118% | viability, T/C [10]: 92.5% | viability, T/C [11]: 66.4% | viability, T/C [12]: 49.7% | viability, T/C (second compound 0.003 µM, first compound 3.16 µM): 54.9% | viability, T/C (second compound 0.003 µM, first compound 10 µM): 39.1% | viability, T/C [15]: 71% | viability, T/C [16]: 55.4% | viability, T/C [17]: 46.9% | viability, T/C [18]: 42.6% | viability, T/C (second compound 0.00949 µM, first compound 3.16 µM): 44.2% | viability, T/C (second compound 0.00949 µM, first compound 10 µM): 38% | viability, T/C [21]: 43.8% | viability, T/C [22]: 47.5% | viability, T/C [23]: 46.9% | viability, T/C [24]: 39.9% | viability, T/C (second compound 0.03 µM, first compound 3.16 µM): 45.5% | viability, T/C (second compound 0.03 µM, first compound 10 µM): 36.6% | viability, T/C [27]: 38.9% | viability, T/C [28]: 37.5% | viability, T/C [29]: 40.6% | viability, T/C [30]: 40.3% | viability, T/C (second compound 0.0949 µM, first compound 3.16 µM): 44.2% | viability, T/C (second compound 0.0949 µM, first compound 10 µM): 46.6% | viability, T/C [33]: 36.7% | viability, T/C [34]: 40.9% | viability, T/C [35]: 47.3% | viability, T/C [36]: 39.1% | viability, T/C (second compound 0.3 µM, first compound 3.16 µM): 44.7% | viability, T/C (second compound 0.3 µM, first compound 10 µM): 37.1%

Nc1ccn(C2OC(CO)C(O)C2(F)F)c(=O)n1 (stereo unspecified) + CCn1c(-c2cc(N3CCN(C)CC3)cnc2C(C)OC)c2c3cc(ccc31)-c1csc(n1)CC(NC(=O)C1CC1C)C(=O)N1CCCC(N1)C(=O)OCC(C)(C)C2
IC50 (second compound 0.000949 µM): 11.5 nM | IC50 (second compound 0.003 µM): 7.36 nM | IC50 (second compound 0.00949 µM): 3.62 nM | IC50 (second compound 0.03 µM): < 3.16 nM | IC50 (second compound 0.0949 µM): < 3.16 nM | IC50 (second compound 0.3 µM): < 3.16 nM | viability, T/C [1]: 96.2% | viability, T/C [2]: 53.7% | viability, T/C [3]: 23.7% | viability, T/C [4]: 13.8% | viability, T/C [5]: 13.5% | viability, T/C [6]: 15.7% | viability, T/C [7]: 80.8% | viability, T/C [8]: 38.6% | viability, T/C [9]: 20.2% | viability, T/C [10]: 10.3% | viability, T/C [11]: 11.4% | viability, T/C [12]: 11% | viability, T/C [13]: 52.9% | viability, T/C [14]: 28.8% | viability, T/C [15]: 19.2% | viability, T/C [16]: 9.65% | viability, T/C [17]: 12.4% | viability, T/C [18]: 10.4% | viability, T/C [19]: 33.8% | viability, T/C [20]: 25.8% | viability, T/C [21]: 18.5% | viability, T/C [22]: 9.6% | viability, T/C [23]: 8.72% | viability, T/C [24]: 9.03% | viability, T/C [25]: 31.6% | viability, T/C [26]: 22.4% | viability, T/C [27]: 17.2% | viability, T/C [28]: 7.8% | viability, T/C [29]: 9.83% | viability, T/C [30]: 8.16% | viability, T/C [31]: 37.6% | viability, T/C [32]: 25.7% | viability, T/C [33]: 21.4% | viability, T/C [34]: 12.1% | viability, T/C [35]: 9.28% | viability, T/C [36]: 8.49%
